Values after ≈ are worked out from the molar mass of the structure shown. {Fluorescein} = fluorescein label; {Biotin} = biotin label; d = 2'-deoxy (DNA); r = 2'-OH (RNA)
Key:
[1] = system: borderline oxacillin resistant S. aureus (BORSA) isolates; test: Minimal inhibitory concentration (MIC) using E-Test; format: cell-based; details: Staphylococcus aureus
Protocol: (§1) The crude lysate preparations, probe synthesis, CPT procedure and analyses were carried out as described in Example 4 except that the cells were picked from the TSA blood plate with a 1 μl plastic loop (PML Microbiological, Richmond, BC, Canada) resuspended in 50 μl of 0.05% Triton X-100® in 20 mM TES buffer (pH 6.8) and lysed with the addition of achromopeptidase (Wako Bioproducts) as described in Example 4. The DNA was heat denatured at 95° C. for 5 minutes prior to use. The experiment was carried out as an operator blind study. The isolates were also tested with conventional oxacillin screening agar (PML Microbiological), Kirby-Bauer Disc diffusion, minimal inhibitory concentration (MIC) using E-Test with 4% NaCl Meuller-Hinton and S. aureus were tested with the BBL® Crystal™ MRSA ID test (Beckton Dickinson).

[2] = system: borderline oxacillin resistant S. aureus (BORSA) isolates; test: Disk diffusion, oxacillin in the presence of clavulanic acid; format: cell-based, Staphylococcus aureus
Protocol: as §1

mecA gene [3] = test: CPT Direct Fluorescence Assay (CPT-DFA) on crude lysates; format: biochemical, Staphylococcus aureus
Protocol: Two experiments were carried out for the detection of the mecA gene from clinical isolates using the direct fluorescence assay (DFA) combined with CPT (CPT-DFA). In the first experiment, 58 isolates were screened using a plate reader format, and in the second experiment, 120 isolates were screened using single tube reader format. Briefly, the assay uses a fluoresceinated and biotinylated chimeric probe complementary to a sequence within the mecA gene present in MRSA, but not in MSSA. The probe is labeled with fluorescein at the 5′ end and biotin at the 3′ end. The CPT assay is performed with crude lysate preparations from Staphylococcal cells in the presence of RNase H and the chimeric probe. After the cycling reaction, streptavidin coated magnetic beads are added to bind the uncleaved probe. The supernatant containing the cleaved fragment labeled with fluorescein is separated from the beads using a magnet and the supernatant is transferred to a glass tube or a microtiter plate for fluorescence measurement.
The source of the fifty-eight clinical isolates were obtained from Cleveland Hospital, Wishard Memorial and Vancouver General Hospital. All MRSA and MSSA cells were prepared and lysed essentially as described in Example 4 except that the lysates were prepared as either 2×McFarland No. 5 standard density or 1 μl loop of cells in 50 μl volume. One μl loop of cells is approximately equivalent to 5×McFarland No. 5 standard.
The streptavidin coated magnetic beads (Dynal M-280, Oslo, Norway) were prepared by washing two times in an equal volume of TES cycling buffer (4 mM MgCl2, 0.05% Triton X-100®, 20 mM TES, pH 6.8). The beads were then re-suspended in 10 times the original volume with cycling buffer containing NaCl. The diluted beads were added to the reactions containing biotinylated probe to a final concentration of 50 μg of beads/reaction and a final NaCl concentration of 1.5 M. Binding was carried out in a thermomixer (Eppendorf) at 37° C. with mixing at a speed of 13×100 minutes^−, for 10 minutes. The supernatant was then separated from the beads using an MPC magnet (Dynal).
Probe was detected after binding using the Fluoroskan fluorescence plate reader (Labsystems, Needham. Mass.) by placing the supernatant containing the cleaved probe in a well of MicroFluor ‘U’ black round bottom plate (Dynatech, Chantilly, Va.). To each well containing a sample, 150 μl of 0.22 M DEA pH 10 was added. Any bubbles in the wells were removed using the edge of a Kimwipe (Roswell, Ga.). The plate was scanned in the plate reader with an excitation wavelength of 485 nm, an emission wavelength of 538 nm and a scan/well time of 20×0.1 sec, at room temperature. Similar detection using the Beacon-2000 tube reader (Panvera, Madison, Wis.) was performed, by placing the supernatant containing the probe in a borosilicate glass tube (Kimble, Toledo, Ohio), that contains 11 μl of 2.0 M DEA, pH 10. The samples were then vortexed and the fluorescence intensity was measured using the static mode of the Beacon-2000 instrument. The excitation and emission wavelengths were 485 nm and 515 nm respectively and an average of 10 read cycles at 25° C. was used.
The assay used a chimeric probe FmecA945-29(XL)4B3 (SEQ ID NO:5) labeled with fluorescein at the 5′ end and three biotin at the 3′ end. Cycling reactions with crude lysate were performed in a 50 PI reaction containing 25 μl of crude lysates. The lysates were denatured at 95° C. for 2 minutes. CPT reaction was carried out and the final conditions were as follows: 1 pmol chimeric probe, 25 μl of crude lysates, 50 μM EDTA, 0.5 mM spermine, 1.5 μg of RNase H in a final reaction volume of 50 μl. All reactions were cycled in a 60° C. water bath, in microcentrifuge tubes (uncapped) for 50 minutes. Reactions were stopped with the addition of an equal volume of diluted beads (50 μg of beads/reaction in Cycling Buffer and NaCl), while still in the water bath. Binding and detection were carried out as described above. […]

mecA gene [4] = test: Non-isotopic CPT assay (CPT-EIA) on crude lysates of clinical isolates; format: biochemical, Staphylococcus aureus; details: n = 51, subtractive CPT assay
Excerpt: The non-isotopic MRSA Assay which combines CPT with an enzyme immunoassay (CPT-EIA) is schematically illustrated in FIG. 3. This Rapid MRSA Test uses a fluoresceinated and biotinylated chimeric probe which provides an RNase H sensitive scissile linkage when bound to the complementary base sequence of the mecA gene. The uncleaved probe (mecA negative) is detected by binding of the probe to a solid surface and attachment of an antibody conjugated with horse radish peroxidase, which converts a substrate to a colored end product. Cleavage of the probe (mecA positive) prevents binding of the probe-antibody complex to the solid surface thus preventing formation of the colored end product. A result is generated in 90 minutes.
Effective lysis of both MRSA and MSSA were developed and optimized. The composition of the Lysis Reagent is as follows: 200 Units/ml of achromopeptidase (Wako Bioproducts, Wako), 0.02 mg/ml lysostaphin (Sigma, St. Louis, Mo.), 0.05% (v/v) Triton X 100® and 20 mM TES buffer, pH 8.5. […]
After cycling, 100 μl of Binding Reagent (Peroxidase Stabilizing Buffer, DAKO, Mississauga, ON), sheep polyclonal anti-fluorescein-horse radish peroxidase conjugated antibody (1/750 dilution, NEN, Boston, Mass.) was added to the tubes. […] The plate is read using a Vmax plate reader (Molecular Devices) set at OD of 650 nm (OD650).

mecA 227 bp amplicon = test: PCR followed by CPT-EIA detection of amplicon; format: biochemical, Staphylococcus aureus
Protocol: Crude lysates of MSSA (ATCC 11632) and MRSA (ATCC 33592) strains were grown overnight at 37° C. on tryptic soy agar with 5% sheep blood (PML Microbiologicals, Tualatin, Oreg.). A cell suspension was made in TES buffer (20 mM TES (pH 6.8), 0.05% Triton X-100) to obtain a cell density equivalent to a 5×McFarland#5 standard of turbidity (7.5×10^9 cells/ml). The cells were lysed with 150 U/ml achromopeptidase (Wako ) for 25 min at 37° C. After lysis, the cells were stored at −20° C. Adequate dilutions were made in deionized sterile water.
The PCR reaction was carried out in a 25 μl reaction containing 20 mM Tris,(pH 8.3) 1.5 MM MgCl2 0.2 mM dNTPs (Pharmacia), 6.25 pmol of each primer (Table 1) and 0.5 U AmpliTaq Gold (Perkin Elmer). The PTC-100 Programmable Thermal Cycler (MJ Research, Inc.) was used with the following PCR program: 95° C. for 10 min., 20×(94° C. for 40 s, 53° C. for 40 s and 72° C. for 1.5 min). The reaction was submitted to a final extension step at 72° C. for 5 min. and then held at 4° C. prior to analysis. PCR reactions were analyzed by CPT as described below or using a 2% agarose gel and ethidium bromide (Et-Br) staining.
The 227 bp mecA PCR product was used as a standard to determine the sensitivity of CPT-EIA and Et-Br stained gels. The amplicon was prepared as follows: several 100 μl reactions were subjected to 30 cycle PCR and the amplicon was purified using a Qiagen PCR purification kit as recommended by the manufacturer. The 227 bp product was quantified by spectrophometer and used as a standard.
CPT-EIA. The 25 μl PCR reaction was heat denatured at 95° C. for 2 min and then placed at 54° C. The CPT components in 25 μl were added to the PCR reaction to give a CPT reaction volume of 50 μl. […]

[5] = 58 isolates, Fluoroskan plate reader, relative to culture and PCR resolution
[6] = 120 isolates, 1 pmol probe, Beacon-2000 tube fluorometer
[7] = 120 isolates, Beacon-2000 tube fluorometer

## Cc1onc(-c2ccccc2)c1C(=O)N[C@@H]1C(=O)N2[C@@H]1SC(C)(C)[C@@H]2C(=O)O [oxacillin]
[1]; 4 S. aureus isolates lacking mecA, oxacillin agar screen positive
  MIC: 3 to 16 µg/mL (≈ 7.47 to 39.9 µM)
[1]; additional 31 S. aureus isolates lacking mecA, E test
  MIC: 3 to 12 µg/mL (≈ 7.47 to 29.9 µM)
[2]
  susceptibility by disk diffusion: susceptible

## FmecA945-29(XL)4B3 (DNA AATAGAGAAAAAGAAAAAAGATGGCAAAG; fluorescein and biotin labels, chimeric DNA/RNA, further chemistry not given here)
mecA gene [3]; [5]
  sensitivity for detection of the mecA gene: 100%
  specificity for detection of the mecA gene: 100%
mecA gene [3]; [6]
  range of fluorescence of MRSA samples: 144.2-191.9
  range of fluorescence of MSSA samples: 58.1-101.7 RFU
mecA gene [3]; [7]
  net gap between the highest MSSA sample and the lowest MRSA: 42.5 RFU
  sensitivity: 100%
  specificity: 98%

## FmecA945-29B (DNA AATAGAGAAAAAGAAAAAAGATGGCAAAG; sugars from the 5' end d13 r4 d12, 5' {Fluorescein}, 3' {Biotin}, backbone and methylation of C not given here; further chemistry not fully specified)
mecA gene [4]; MRSA clinical isolate lysates
  A650 nm Mean: 0.053
mecA gene [4]; MSSA clinical isolate lysates
  A650 nm Mean: 0.239
mecA 227 bp amplicon; 20 cycle PCR, serial dilution of crude lysates
  starting MRSA cells whose amplicon CPT-EIA could detect: ≥ 100 cells
mecA 227 bp amplicon; 100 MRSA cell equivalent samples, 20 cycle PCR
  probe cleaved: 80%
mecA 227 bp amplicon; 100 MRSA cell equivalents, assuming 100% PCR efficiency (175 amol)
  number of times the target is cycled in CPT: at least 50
